In publication PMC5382200, “Mapping and Identification of Antifungal Peptides in the Putative Antifungal Protein AfpB from the Filamentous Fungus Penicillium digitatum” (Frontiers in Microbiology, 2017):
Values after ≈ are worked out from the molar mass of the structure shown. “Also recorded” adds a separate entry of the source. Where two headings read alike, the source gives them in different places. Positions of bridges follow the written chain, without caps; N, C: chain ends. Residues, ends and D or L forms follow the SMILES beside them. No end group written: not given here.

Assays:
recombinant proteinase K [1] = biological target: T1, recombinant proteinase K (Parengyodontium album, UniProt P06873); experiment: Proteolytic digestion assay with RP-HPLC analysis; type: in vitro ADME; conditions: two replicates; for resistance to degradation by proteinase K (in words): peptide 5 μM in 10 mM MOPS pH 7, 30°C, 0, 1, 2 and 24 h
T1 construct: purchased Roche, Mannheim, Germany
T1 sequence (P06873 106-384): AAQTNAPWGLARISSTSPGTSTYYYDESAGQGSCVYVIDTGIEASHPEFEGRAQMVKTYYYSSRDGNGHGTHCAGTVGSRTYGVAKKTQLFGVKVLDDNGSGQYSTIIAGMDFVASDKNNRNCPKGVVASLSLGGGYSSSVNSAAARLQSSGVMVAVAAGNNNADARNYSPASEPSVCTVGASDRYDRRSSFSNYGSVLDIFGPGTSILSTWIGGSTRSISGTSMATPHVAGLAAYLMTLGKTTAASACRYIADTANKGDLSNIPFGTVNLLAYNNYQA
Experimental: (§1) The proteolytic digestion assays were performed as described ([Ferre et al., 2006]; [López-García et al., 2015]) with minor modifications. Peptides (5 μM) were dissolved in 10 mM MOPS pH 7 and digested with 5 μg/mL of recombinant proteinase K (2 U/mg; Roche, Mannheim, Germany) at 30°C. Aliquots were withdrawn from the reaction mixtures at 0, 1, 2, and 24 h of incubation and immediately heated at 80°C for 10 min to inactivate the enzyme. Two replicates were prepared for each treatment, and the experiments were repeated at least twice.
(§2) Analyses of peptide digests were conducted by RP-HPLC using a Waters system (Waters Corporation, Milford, MA, USA) equipped with a 1525 Binary HPLC pump, a 2996 Photodiode Array Detector, and a 717 plus Autosampler. A Symmetry C18 column (4.6 mm × 150 mm, 5 μm, Waters Corporation) kept at 40°C was operated at a flow rate of 1 mL/min. Peptides were eluted with a linear gradient of solvent B [acetonitrile with 0.1% trifluoroacetic acid (TFA)] in solvent A (water with 0.1% TFA) 0–40% in 20 min and detected at 214 nm.

A. niger CBS 120.49 = test system: A. niger CBS 120.49
Experimental: (§3) The fungal strains used in this study are P. digitatum CECT20796, P. chrysogenum Q176, Botrytis cinerea CECT2100, Fusarium oxysporum 4287, and Aspergillus niger CBS 120.49. Fungi were cultured on potato dextrose agar (Difco-BD Diagnostics, Sparks, MD, USA) plates for 7–10 days at 24°C with the exception of F. oxysporum, which was cultured on potato dextrose broth (PDB; Difco-BD Diagnostics) at 28°C for 4 days with shaking. Conidia (mitotic asexual spores) were collected, filtered, and adjusted to the appropriate concentration. For antibacterial assays, the Gram-negative bacterium Escherichia coli JM109 was grown in Luria-Bertani (LB) medium at 37°C with shaking.
(§4) Growth inhibition assays were performed in 96-well microtiter plates (Nunc, Roskilde, Denmark) in a total volume of 100 μL as described previously ([López-García et al., 2002]). […] All samples were prepared in triplicate. Plates were statically incubated for 72 h at the optimal temperature of each microorganism. Growth was determined by measuring the optical density (OD) at 600 nm (OD600) using a Multiskan Spectrum plate spectrophotometer (Thermo Electron Corporation, Vantaa, Finland), and the OD600 mean and SD were calculated. Dose–response curves were generated from measurements after 72 h for fungi, and 48 h for E. coli. These experiments were repeated at least twice.

B. cinerea CECT2100 = test system: B. cinerea CECT2100
Experimental: as §3, §4

P. chrysogenum Q176 = conditions: 72 h
Experimental: as §3, §4

P. digitatum CECT20796 = test system: P. digitatum CECT20796
Experimental: as §3, §4

proteinase K = test system: T2, proteinase K; experiment: Proteolytic digestion assay with RP-HPLC analysis; type: in vitro ADME; conditions: recombinant proteinase K; proteinase K 5 μg/mL (2 U/mg), peptide 5 μM in 10 mM MOPS pH 7, 30°C, 24 h; RP-HPLC C18 peak area at 214 nm; two replicates; read-out: peptide left after 24 h of treatment
T2 construct: purchased Roche, Mannheim, Germany
Experimental: as §1, §2

[2] = ref Palicz et al., 2013; cited from earlier work
Source text: (§5) There is an urgent need to develop new antifungal molecules with properties and mechanisms of action different from existing ones ([Brown et al., 2012]; [Fisher et al., 2012]). […] A remarkable group of AMPs are the antifungal proteins (AFPs) of fungal origin. AFPs belong to the broad class of defensins and are p ...

mammalian cells = conditions: ref Marx et al., 2008; cited from earlier work
Source text: as §5

F. oxysporum 4287 = conditions: 4287, 72 h
Experimental: as §3, §4

recombinant proteinase K [3] = biological target: T1, recombinant proteinase K; conditions: control peptide; ref López-García et al., 2015; cited from earlier work
Experimental: To exclude the possibility that increased sensitivity to proteolytic degradation could be the reason for limited antifungal activity, we tested the in vitro stability of the peptides derived from AfpB by incubation with proteinase K at different times and RP-HPLC analysis of the resultant digests.

[4] = proteinase K 5 μg/mL, RP-HPLC peak area at 214 nm
[5] = B. cinerea CECT2100, 2.5 × 10^4 conidia/mL in 1/20 diluted PDB with 0.01% chloramphenicol, 72 h, OD600, triplicate

| Compound | resistance to degradation by proteinase K (in words) (recombinant proteinase K [1]; [4]) | Minimum inhibitory concentration (MIC) (A. niger CBS 120.49; CBS 120.49, 72 h) [µM] | Minimum inhibitory concentration (MIC) (B. cinerea CECT2100; [5]) [µM] | Minimum inhibitory concentration (MIC) (P. chrysogenum Q176) [µM] | Minimum inhibitory concentration (MIC) (P. digitatum CECT20796; CECT20796, 72 h) [µM] | further results |
| --- | --- | --- | --- | --- | --- | --- |
| CC(C)C[C@@H]1NC(=O)[C@H](CO)NC(=O)[C@@H](NC(=O)[C@H](CCC(N)=O)NC(=O)CN)CSSC[C@@H](C(=O)N[C@H](C(=O)O)[C@@H](C)O)NC(=O)[C@H]([C@@H](C)O)NC(=O)[C@H](CC(N)=O)NC(=O)[C@H](Cc2c[nH]cn2)NC(=O)[C@H](CCCCN)NC1=O [PAF109] (H-GQCSLKHNTCT-OH; disulfide 3-10) | remarkably resistant; also recorded: extremely stable |  |  |  |  |  |
| C[C@@H]1NC(=O)[C@H](C)NC(=O)[C@H](CO)NC(=O)CNC(=O)[C@@H](NC(=O)[C@@H](N)CC(N)=O)CSSC[C@@H](C(=O)N[C@@H](CCC(=O)O)C(=O)O)NC(=O)[C@H](Cc2c[nH]cn2)NC(=O)[C@H](Cc2c[nH]cn2)NC(=O)[C@H](CCCNC(=N)N)NC(=O)[C@H](CC(=O)O)NC(=O)[C@H](CO)NC(=O)[C@H](CCCCN)NC(=O)[C@H](C)NC(=O)[C@H](CCCNC(=N)N)NC(=O)[C@H](CCCCN)NC(=O)[C@H](CC(N)=O)NC1=O [PAF112] (H-NCGSAANKRAKSDRHHCE-OH; disulfide 2-17) |  | >128 | 128 (≈ 254 µg/mL) | >128 | 64 (≈ 127 µg/mL) | remaining at 24 h, 5 μM (proteinase K): ~20% |
| C[C@@H]1NC(=O)[C@H](CCCCN)NC(=O)[C@H](CCCCN)NC(=O)[C@H](CC(N)=O)NC(=O)[C@H](CC(=O)O)NC(=O)[C@H](Cc2ccccc2)NC(=O)[C@H](CCCCN)NC(=O)[C@@H]2CCCN2C(=O)[C@@H](NC(=O)[C@@H](N)CCCCN)CSSC[C@@H](C(=O)N[C@H](C(=O)O)[C@@H](C)O)NC(=O)[C@H](CCCCN)NC(=O)[C@H](CC(N)=O)NC(=O)[C@H](CC(N)=O)NC(=O)[C@H](CC(=O)O)NC(=O)[C@H](CCCCN)NC(=O)[C@H]([C@@H](C)O)NC1=O [PAF116] (H-KCPKFDNKKATKDNNKCT-OH; disulfide 2-17) |  |  | 16 (≈ 33.3 µg/mL) |  | 32 (≈ 66.6 µg/mL) |  |
| CC[C@H](C)[C@@H]1NC(=O)[C@H](C(C)C)NC(=O)[C@H](CC(N)=O)NC(=O)[C@H](CCCNC(=N)N)NC(=O)CNC(=O)CNC(=O)[C@H](CCCCN)NC(=O)[C@H](CC(C)C)NC(=O)[C@H](Cc2ccc(O)cc2)NC(=O)[C@H]([C@@H](C)O)NC(=O)[C@@H](NC(=O)[C@@H](NC(=O)[C@@H](N)CC(N)=O)[C@@H](C)O)CSSC[C@@H](C(=O)NCC(=O)O)NC(=O)[C@H](CC(N)=O)NC(=O)[C@H](C(C)C)NC1=O [PAF118] (H-NTCTYLKGGRNVIVNCG-OH; disulfide 3-16) |  | >128 | 64 (≈ 116 µg/mL) | >128 | 64 (≈ 116 µg/mL) | peptide left after 24 h of treatment (recombinant proteinase K [1]; proteinase K 5 μg/mL (2 U/mg), peptide 5 μM in 10 mM MOPS pH 7, 30°C, 24 h, RP-HPLC C18 peak area at 214 nm): around 20%; intact peptide after 1 and 2 h of treatment (recombinant proteinase K [1]; proteinase K 5 μg/mL, peptide 5 μM in 10 mM MOPS pH 7, 30°C, 1 and 2 h, RP-HPLC peak area at 214 nm): severe reduction |
| CC(C)[C@@H]1NC(=O)[C@H](CCCNC(=N)N)NC(=O)[C@H](CCCNC(=N)N)NC(=O)[C@H](Cc2c[nH]cn2)NC(=O)[C@H](Cc2c[nH]cn2)NC(=O)[C@H](CCC(=O)O)NC(=O)[C@H](CC(=O)O)NC(=O)[C@H](Cc2ccc(O)cc2)NC(=O)[C@H](CCC(=O)O)NC(=O)[C@@H](NC(=O)[C@@H](N)Cc2c[nH]cn2)CSSC[C@@H](C(=O)N[C@@H](CCC(N)=O)C(=O)O)NC(=O)[C@H](CC(=O)O)NC1=O [PAF119] (H-HCEYDEHHRRVDCQ-OH; disulfide 2-13) | remarkably resistant; also recorded: extremely stable |  |  |  |  |  |
| AKYTGKCTKSKNECKYKNDAGKDTFIKCPKFDNKKCTKDNNKCTVDTYNNAVDCD (disulfide 7-36, 14-43, 28-54) [PAF protein] |  |  |  |  |  | toxicity in vivo [2]: non-toxic; toxicity to mammalian cells in vitro (mammalian cells): non-toxic |
| NAGSAANKRAKSDRHHAE [PAF113] | high sensitivity |  | 128 |  |  | Minimum inhibitory concentration (MIC) (A. niger CBS 120.49; A. niger CBS 120.49, 2.5 × 10^4 conidia/mL in 1/20 diluted PDB with 0.01% chloramphenicol, 72 h, OD600, triplicate): >128 µM; Minimum inhibitory concentration (MIC) (P. chrysogenum Q176; P. chrysogenum Q176, 2.5 × 10^4 conidia/mL in 1/20 diluted PDB with 0.01% chloramphenicol, OD600, triplicate): >128 µM; Minimum inhibitory concentration (MIC) (P. digitatum CECT20796; P. digitatum CECT20796, 2.5 × 10^4 conidia/mL in 1/20 diluted PDB with 0.01% chloramphenicol, 72 h, 24°C, OD600, triplicate, repeated at least twice, concentration that completely inhibited growth in all experiments): 64 µM; degradation after 1 h of treatment (recombinant proteinase K [1]; proteinase K 5 μg/mL, peptide 5 μM in 10 mM MOPS pH 7, 30°C, 1 h, RP-HPLC peak area at 214 nm): completely degraded |
| RKKWFW [PAF26, reference compound] |  | 8 |  | 16 | 8 | Minimum inhibitory concentration (MIC) (B. cinerea CECT2100; CECT2100, 72 h): 8 µM; Minimum inhibitory concentration (MIC) (F. oxysporum 4287): 16 µM; resistance to protease degradation (recombinant proteinase K [3]): highly resistant |
